According to publication PMC2852246 (Journal of nuclear medicine : official publication, Society …, 2010):
Values joined by “and” are separate entries in the source; they are usually repeats but may differ in a detail not shown here. Equal values may be shown once. Read-outs that look alike come from different tables or passages of the source.

Tests used:
[1] = earlier study of 106 subjects referred for potential kidney donation; cited from earlier work
[2] = 106 subjects referred for potential kidney donation; cited from earlier work
[3] = cited from earlier work
[4] = cited from earlier work; remark: listed apart in the source
[5] = Plasma protein binding by ultracentrifugation; type: in vitro ADME, human; conditions: healthy volunteers, mean ± SD
[6] = Percentage uptake in erythrocytes; type: in vitro ADME, human; conditions: healthy volunteers, no correction for trapped plasma, mean ± SD
[7] = Percentage injected dose in the urine of healthy volunteers; type: in vivo, human
[8] = Renal imaging and renogram parameters; type: in vivo, human
[9] = single dose of 10 mg, eight human volunteers; cited from earlier work
[10] = determined by Health Canada; cited from earlier work
[11] = cortical (parenchymal) region of interest, left kidney, n = 9
[12] = cortical (parenchymal) region of interest, right kidney, n = 9
[13] = whole-kidney region of interest, relative uptake, n = 9, mean (SD)

Compound: O=C([O-])CN=C([O-])CN=C([O-])CN=C([O-])C[S-].[O-2].[Tc+4] [^99mTc-MAG3, ^99mTc-mercaptoacetyltriglycine]
- cortical 20 min/max [1]: 0.19
- camera-based clearance [2]: 321 ± 69 mL/min/1.73 m^2
- extraction fraction [3]: 40%-60%
- clearance as percentage of the clearance of 131I-OIH [4]: 50%-60%
- plasma clearance as percentage of the 131I-OIH clearance ([4]; multiple studies): 50–60%

Compound: O=C([O-])CN(CCN(CC(=O)[O-])CC(=O)[O-])CCN(CC(=O)[O-])CC(=O)[O-].[99Tc+4] [^99mTc-DTPA, ^99mTc-diethyltriaminepentaacetic acid]
- extraction fraction [3]: 20%

Compound: O=C(O)CNC(=O)c1ccccc1[131I] [^131I-OIH, ^131I ortho-iodohippuran]
- plasma protein binding [5]: 75 ± 3%
- red cell uptake [6]: 17 ± 5%
- percent injected dose in the urine at 30 min ([7]; 30 min after injection): 69 ± 11%
- percent injected dose in the urine at 180 min (3 h) ([7]; 180 min after injection): 91 ± 6%
- Left cortical TTP [8, 11]: 2.46 ± 0.73 min
- Left cortical TTP (min) [8, 11]: 2.46 (0.73) min
- Right cortical TTP [8, 12]: 1.98 ± 0.60 min
- Right cortical TTP (min) [8, 12]: 1.98 (0.6) min
- cortical 20 min/max ([8]; healthy volunteers, kidney side not specified): 0.10
- Left kidney 20 min/max ([8]; whole-kidney region of interest, 20 min-to-maximum count ratio, n = 9, mean (SD)): 0.11 (0.03)
- Right kidney TTP (min) ([8]; whole-kidney region of interest, n = 9, mean (SD)): 2.8 (1.6) min
- Left kidney Uptake % [8, 13]: 49.0 ± 4.1% and 49.0 (4.1) %
- Right kidney Uptake % [8, 13]: 51.0 (4.1) %
- Left kidney TTP (min) ([8]; whole-kidney region of interest, time to peak of renogram, n = 9, mean (SD)): 2.6 (0.6) min
- mean plasma clearance ([4]; earlier study of healthy volunteers): 530 mL/min

Compound: O=C(O)CN(CC(=O)O)CC(=O)O [NTA, Nitrilotriacetic acid]
- adverse effects after ingestion [9]: No adverse effects
- acceptable daily intake in drinking water [10]: 10 μg/kg of body weight per day
